Test results from patent publication EP4638411B1, “PLASTICIZER” (priority 2022, dated 2024).

How the values were obtained:
[1] = Density at 20 °C (DIN 51757 method 4); assay type: physicochemical; details: DIN 51757 Verf. 4
From the text: (§1) Die nachfolgende Tabelle 3 gibt die Eigenschaften der wie oben beschriebenen Verbindungen wieder. Tabelle 3.

[2] = HCl residual stability of plasticized PVC films at 200 °C; details: PVC film, 60 phr plasticizer
From the text: Rezeptur: siehe nachfolgende Tabelle 5. Tabelle 5.
150 g PVC (Homopolymeres Suspensions-PVC, Markenname Inovyn® 271 PC); 90 g Weichmacher-Zusammensetzung und 3 g Ba/Zn-Stabilisator, Markenname Baerostab® UBZ 760 XLP RF wurden mit einem Handmixer bei Raumtemperatur vermischt. Die Mischung wurde anschließend auf einem ölbeheizten Labormischwalzwerk (Fa. Collin, Automatikwalzwerk Typ W250M, Durchmesser: 252 mm, Breite: 450 mm) plastifiziert und zu einem Walzfell verarbeitet. Die Temperatur der beiden Walzen betrug jeweils 180 °C; die Drehzahlen lagen bei 15 Umdrehungen/min. (vordere Walze) und 12 Umdrehungen/min. (hintere Walze); die Walzzeit betrug 5 Minuten. Der Walzenspalt wurde auf 0,5 mm eingestellt. Man erhielt so ein Walzfell mit einer Dicke von 0,53 mm. Das abgekühlte Walzfell wurde anschließend bei einer Temperatur von 190 °C und einem Druck von 150 bar innerhalb von 180 s auf einer Presse vom Typ "Laborplattenpresse 400 P" der Fa. Collin zu einer Weich-PVC-Folie mit einer Dicke von 0,50 mm verpresst. Unter Beibehaltung des Pressdrucks wurde die Pressfolie innerhalb von 10 Minuten auf ca. 40 °C abgekühlt.
Die Bestimmung der HCl-Reststabilität erfolgt nach DIN EN 60811-405 (VDE 0473-811-405): Als Prüfgerät wird ein Metallblock-Thermostat von Liebisch Labortechnik bei einer Prüftemperatur von 200 °C verwendet. Es wird immer eine 3-fach Bestimmung vorgenommen. Ca. 50 mg der Walzfolien werden abgewogen, auf 3 cm Länge zugeschnitten und im unteren Teil des Glasröhrchens positioniert. Am oberen Ende des Glasröhrchens wird ein ca. 10 mm langer Indikatorpapierstreifen (Lackmusspapier) so positioniert, dass ca. 2 mm herausstehen. Die so präparierten Glasröhrchen werden in den Metallblock positioniert und die Zeit notiert, bis ein Farbumschlag in Richtung Rot auftritt. Aus den drei Messwerten der drei Proben wird der arithmetische Mittelwert gebildet.

[3] = Refractive index nD20 (DIN 51423-2); assay type: physicochemical
From the text: as §1

[4] = Acid number (DIN EN ISO 2114); assay type: physicochemical
From the text: as §1

[5] = Viscosity at 20 °C (DIN 51562-1); assay type: physicochemical
From the text: as §1

[6] = Water content (DIN 51777-1); assay type: physicochemical
From the text: as §1

[7] = Dissolution (gelling) temperature of PVC in plasticizer, plate/plate rheometer, temperature at viscosity maximum; assay type: physicochemical; details: 5 phr PVC, 95 phr plasticizer, 2 phr Ba-Zn stabilizer; 5 °C/min; mean of four measurements
From the text: Anwendungstechnische Prüfungen: II.a) Bestimmung der Lösetemperatur der offenbarungsgemäßen Weichmacher-Zusammensetzungen: Zur Bestimmung der Lösetemperatur der offenbarungsgemäßen Weichmacher-Zusammensetzungen wurden etwa 10 Gramm einer Mischungen nach folgender Rezeptur (siehe Tabelle 4) hergestellt. Die Mischung wird mit einer Pipette aufgerührt und dann sofort ca. 30 Tropfen der homogenen Mischung auf das Platte-Platte-Messsystem gegeben. Tabelle 4.
Die Viskositätsmessungen wurden mit einem beheizbaren Oszillations- und Rotations-Rheometer MCR 302 von Anton Paar in einem Rotationsversuch durchgeführt.
Die Messung erfolgte in zwei Rampen. Die erste Rampe für die Dauer von 120 s bei D=10 (1/s) und 30 °C dient zum Temperieren der Probe. Die zweite Rampe bei D=10 (1/s) und kontinuierlicher Temperatursteigerung von 5 °C min ist dann die eigentliche Messung. Der Abbruch erfolgte manuell, nachdem das Viskositätsmaximum überschritten war. Als Ergebnis der Messung wird die Temperatur ermittelt, bei der das Maximum der Viskosität erreicht ist. Diese Messungen werden insgesamt viermal durchgeführt und der arithmetische Mittelwert aller vier Messungen als das Endergebnis gewertet. Il.b) Herstellung und Prüfung von Weich-PVC-Folien hergestellt unter Einsatz erfindungsgemäßer Weichmacher-Zusammensetzungen

Molecule | Dichte, 20 °C [1] | HCl-Reststabilität [2] | Brechzahl, n^D20 [3] | Säurezahl [4] | Viskosität, 20 °C [5] | Wassergehalt [6] | Lösetemperatur [7]
4-Oxoheptandisäure-di-isotridecylester [Verbindung I.6] | 0,9365 g/cm^3 | 12 min | 1,4605 | 0,31 mg KOH/g | 101 mPa·s | 0,016 Gew.-% | 162 °C
CCCCC(CC)COC(=O)CCC(=O)CCC(=O)OCC(CC)CCCC (stereo not shown) [4-Oxoheptandisäure-di-(2-ethylhexylester), reference compound] | 0,9661 g/cm^3 | 11,1 min | 1,4534 | 1,5 mg KOH/g | 32 mPa·s | 0,07 Gew.-% | 127 °C
CCCCCC(CCC)COC(=O)CCC(=O)CCC(=O)OCC(CCC)CCCCC (stereo not shown) [Verbindung I.1, 4-Oxoheptandisäure-di-(2-propylheptylester)] | 0,9473 g/cm^3 | 15 min | 1,4553 | 1,1 mg KOH/g | 51 mPa·s | 0,003 Gew.-% | 139 °C
CC(C)CCCC(C)CCOC(=O)CCC(=O)CCC(=O)OCCC(C)CCCC(C)C (stereo not shown) [Verbindung I.2, 4-Oxoheptandisäure-di-(3,7-dimethyloctylester)] | 0,9456 g/cm^3 | 13,4 min | 1,5160 | 0,26 mg KOH/g | 52 mPa·s | 0,013 Gew.-% | 147 °C
